From patent US11780840B2 (Incyte Corporation, priority 2020, dated 2023)

Columns and labels:
[1] = target: T1, catalytic domain (JH1, amino acids 826-1132) of human JAK2 (Homo sapiens, UniProt O60674); experiment: JAK2 LanthaScreen JH1 Binding Assay; details: JAK2 JH1 (1.5 nM), 50 nM fluorescent JAK2-JH1 tracer, 2 hours at 25° C.; read-out: JH1 BIND
T1 construct: catalytic domain (JH1, amino acids 826-1132) of human JAK2; FLAG (N); purchased Carna Biosciences 08-445-20N; host or cells: baculovirus expression system
T1 sequence (O60674 826-1132): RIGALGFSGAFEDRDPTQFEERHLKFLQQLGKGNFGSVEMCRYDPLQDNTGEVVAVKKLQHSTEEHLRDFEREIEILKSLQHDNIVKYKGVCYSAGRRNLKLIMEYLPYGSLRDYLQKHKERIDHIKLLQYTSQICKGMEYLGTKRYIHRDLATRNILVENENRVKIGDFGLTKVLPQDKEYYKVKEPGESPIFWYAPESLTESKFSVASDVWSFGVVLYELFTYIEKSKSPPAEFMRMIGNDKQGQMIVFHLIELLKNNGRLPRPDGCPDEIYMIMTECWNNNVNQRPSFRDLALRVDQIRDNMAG
Method in brief: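 TR-FRET tracer-displacement format: compound IC50 from four-parameter curves after 2 h at 25° C. Reaction held 1.5 nM biotinylated, FLAG-tagged JH1 (aa 826-1132), 50 nM tracer, 0.5 nM Streptavidin-Tb, pH 7.5 Tris buffer; 2 mM ATP set nonspecific background.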

[2] = target: T2, pseudo-kinase domain (JH2, amino-acids 536-812 with 3 surface mutations W659A, W777A, F794H) of human V617F mutant JAK2 (Homo sapiens, UniProt O60674, F794H/V617F/W659A/W777A); experiment: JAK2 LanthaScreen JH2-V617F Binding Assay; details: JAK2 JH2-V617F (0.26 nM), 50 nM Fluorescent JAK2-JH2 Tracer, 1 hour at 25° C.; read-out: JH2 BIND V617F
T2 construct: pseudo-kinase domain (JH2, amino-acids 536-812 with 3 surface mutations W659A, W777A, F794H); His (C); Avi (biotinylated) (C); purchased BPS Bioscience 79498; host or cells: baculovirus expression system
T2 sequence (O60674 536-812 V617F/W659A/W777A/F794H): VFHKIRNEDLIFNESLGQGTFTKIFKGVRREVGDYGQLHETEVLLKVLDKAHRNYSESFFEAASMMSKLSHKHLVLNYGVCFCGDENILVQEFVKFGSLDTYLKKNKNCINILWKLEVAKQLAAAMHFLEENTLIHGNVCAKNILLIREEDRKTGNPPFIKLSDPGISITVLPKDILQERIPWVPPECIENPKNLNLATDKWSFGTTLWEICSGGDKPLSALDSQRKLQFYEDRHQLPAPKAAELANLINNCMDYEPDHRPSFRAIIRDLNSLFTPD
Method in brief: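 TR-FRET tracer displacement: 0.26 nM protein, 50 nM tracer, 0.25 nM SA-Tb, 50 mM Tris pH 7.5, 10 mM MgCl2, 5 mM DTT; 1 h, 25° C. NSB = 2 mM ATP. IC50, 4-parameter curve.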

[3] = target: T3, pseudo-kinase domain (JH2, amino-acids 536-812 with 3 surface mutations W659A, W777A, F794H) of human Wild Type JAK2 (Homo sapiens, UniProt O60674, F794H/W659A/W777A); experiment: JAK2 LanthaScreen JH2-WT Binding Assay; details: JAK2 JH2-WT (0.145 nM), 50 nM Fluorescent JAK2-JH2 Tracer, 1 hour at 25° C.; read-out: JH2 BIND WT
T3 construct: pseudo-kinase domain (JH2, amino-acids 536-812 with 3 surface mutations W659A, W777A, F794H); His (C); Avi (biotinylated) (C); purchased BPS Bioscience 79463; host or cells: baculovirus expression system
T3 sequence (O60674 536-812 W659A/W777A/F794H): as the sequence (O60674 536-812 V617F/W659A/W777A/F794H) above, with F82V counted along it
Method in brief: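 Biotinylated C-terminal His-Avi-tagged JH2 (residues 536-812, baculovirus-expressed) at 0.145 nM was incubated with serially diluted compounds, 50 nM fluorescent JAK2-JH2 tracer and 0.25 nM streptavidin-Tb cryptate in pH 7.5 Tris buffer with MgCl2, Brij-35, BSA, EGTA, glycerol and DTT. LanthaScreen TR-FRET was read after 1 hour at 25° C; IC50 came from four-parameter fits.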

Cn1ncc2cc(-c3c(-c4cccnc4)[nH]c4ncc5c(c34)n(C3CCCC3)c(=O)n5C)ccc21 [Example 61, 1-Cyclopentyl-3-methyl-8-(1-methyl-1H-indazol-5-yl)-7-(pyridin-3-yl)-3,6-dihydroimidazo[4,5-d]pyrrolo[2,3-b]pyridin-2(1H)-one]
IC50 [1]: > 1000 nM | IC50 [2]: ≤ 10 nM | IC50 [3]: ≤ 10 nM

COc1ccc(-c2[nH]c3ncc4c(c3c2-c2ccc3c(cnn3C)c2)n(C(C)C)c(=O)n4C)cn1 [Example 62, 1-Isopropyl-7-(6-methoxypyridin-3-yl)-3-methyl-8-(1-methyl-1H-indazol-5-yl)-3,6-dihydroimidazo[4,5-d]pyrrolo[2,3-b]pyridin-2(1H)-one]
IC50 [1]: > 1000 nM | IC50 [2]: 10 to 100 nM | IC50 [3]: 10 to 100 nM

COc1ccc(-c2[nH]c3ncc4c(c3c2-c2ccc3c(cnn3C)c2)n(C2CCOCC2)c(=O)n4C)cn1 [Example 63, 7-(6-Methoxypyridin-3-yl)-3-methyl-8-(1-methyl-1H-indazol-5-yl)-1-(tetrahydro-2H-pyran-4-yl)-3,6-dihydroimidazo[4,5-d]pyrrolo[2,3-b]pyridin-2(1H)-one]
IC50 [1]: > 1000 nM | IC50 [2]: ≤ 10 nM | IC50 [3]: ≤ 10 nM

COc1ccc(-c2[nH]c3ncc4c(c3c2-c2ccc3c(cnn3C)c2)n(C2CCCC2)c(=O)n4C)cn1 [Example 64, 1-Cyclopentyl-7-(6-methoxypyridin-3-yl)-3-methyl-8-(1-methyl-1H-indazol-5-yl)-3,6-dihydroimidazo[4,5-d]pyrrolo[2,3-b]pyridin-2(1H)-one]
IC50 [1]: > 1000 nM | IC50 [2]: 10 to 100 nM | IC50 [3]: ≤ 10 nM

CC(C)Oc1ccc(-c2[nH]c3ncc4c(c3c2-c2ccc3c(cnn3C)c2)n(C2CCCC2)c(=O)n4C)cn1 [Example 65, 1-Cyclopentyl-7-(6-isopropoxypyridin-3-yl)-3-methyl-8-(1-methyl-1H-indazol-5-yl)-3,6-dihydroimidazo[4,5-d]pyrrolo[2,3-b]pyridin-2(1H)-one]
IC50 [1]: > 1000 nM | IC50 [2]: 10 to 100 nM | IC50 [3]: 10 to 100 nM

Cn1ncc2cc(-c3c(-c4ccc(OC5CCOCC5)nc4)[nH]c4ncc5c(c34)n(C3CCCC3)c(=O)n5C)ccc21 [Example 66, 1-Cyclopentyl-3-methyl-8-(1-methyl-1H-indazol-5-yl)-7-(6-((tetrahydro-2H-pyran-4-yl)oxy)pyridin-3-yl)-3,6-dihydroimidazo[4,5-d]pyrrolo[2,3-b]pyridin-2(1H)-one]
IC50 [1]: > 1000 nM | IC50 [2]: 10 to 100 nM | IC50 [3]: 10 to 100 nM

Cn1ncc2cc(-c3c(-c4ccc(Oc5cccnc5)nc4)[nH]c4ncc5c(c34)n(C3CCCC3)c(=O)n5C)ccc21 [Example 67, 1-Cyclopentyl-3-methyl-8-(1-methyl-1H-indazol-5-yl)-7-(6-(pyridin-3-yloxy)pyridin-3-yl)-3,6-dihydroimidazo[4,5-d]pyrrolo[2,3-b]pyridin-2(1H)-one]
IC50 [1]: > 1000 nM | IC50 [2]: 10 to 100 nM | IC50 [3]: 10 to 100 nM

Cn1ncc2cc(-c3c(C4CC4)[nH]c4ncc5c(c34)n(C3CCCC3)c(=O)n5C)ccc21 [Example 68, 1-Cyclopentyl-7-cyclopropyl-3-methyl-8-(1-methyl-1H-indazol-5-yl)-3,6-dihydroimidazo[4,5-d]pyrrolo[2,3-b]pyridin-2(1H)-one]
IC50 [1]: 500 to 1000 nM | IC50 [2]: ≤ 10 nM | IC50 [3]: ≤ 10 nM

Cn1ncc2cc(-c3c(C4=CCCCC4)[nH]c4ncc5c(c34)n(C3CCCC3)c(=O)n5C)ccc21 [Example 69, 7-(Cyclohex-1-en-1-yl)-1-cyclopentyl-3-methyl-8-(1-methyl-1H-indazol-5-yl)-3,6-dihydroimidazo[4,5-d]pyrrolo[2,3-b]pyridin-2(1H)-one]
IC50 [1]: > 1000 nM | IC50 [2]: ≤ 10 nM | IC50 [3]: ≤ 10 nM

Cn1ncc2cc(-c3c(CCO)[nH]c4ncc5c(c34)n(C3CCCC3)c(=O)n5C)ccc21 [Example 70, 1-Cyclopentyl-7-(2-hydroxyethyl)-3-methyl-8-(1-methyl-1H-indazol-5-yl)-3,6-dihydroimidazo[4,5-d]pyrrolo[2,3-b]pyridin-2(1H)-one]
IC50 [1]: > 1000 nM | IC50 [2]: 100 to 500 nM | IC50 [3]: 100 to 500 nM

Cn1c(=O)n(C2CCCC2)c2c3c(-c4cc5cnccc5s4)c(C4CC4)[nH]c3ncc21 [Example 71, 1-Cyclopentyl-7-cyclopropyl-3-methyl-8-(thieno[3,2-c]pyridin-2-yl)-3,6-dihydroimidazo[4,5-d]pyrrolo[2,3-b]pyridin-2(1H)-one]
IC50 [1]: 500 to 1000 nM | IC50 [2]: 10 to 100 nM | IC50 [3]: ≤ 10 nM

Cn1ncc2cc(-c3c(C4CC4C#N)[nH]c4ncc5c(c34)n(C3CCCC3)c(=O)n5C)ccc21 (stereo not drawn) [Example 72, 2-(1-Cyclopentyl-3-methyl-8-(1-methyl-1H-indazol-5-yl)-2-oxo-1,2,3,6-tetrahydroimidazo [4,5-d]pyrrolo[2,3-b]pyridin-7-yl)cyclopropane-1-carbonitrile]
IC50 [1]: 500 to 1000 nM | IC50 [2]: 10 to 100 nM | IC50 [3]: ≤ 10 nM

COCC(=O)NC1CCC(n2c(=O)n(C)c3cnc4[nH]c(-c5cnn(CC(C)(C)O)c5)c(-c5ccc6c(cnn6C)c5)c4c32)CC1 (stereo not drawn) [Example 73, N-(4-(7-(1-(2-Hydroxy-2-methylpropyl)-1H-pyrazol-4-yl)-3-methyl-8-(1-methyl-1H-indazol-5-yl)-2-oxo-3,6-dihydroimidazo[4,5-d]pyrrolo[2,3-b]pyridin-1(2H)-yl)cyclohexyl)-2-methoxyacetamide]
IC50 [1]: > 1000 nM | IC50 [2]: ≤ 10 nM | IC50 [3]: ≤ 10 nM

CC(=O)NC1CCC(n2c(=O)n(C)c3cnc4[nH]c(-c5cnn(CC(C)(C)O)c5)c(-c5ccc6c(cnn6C)c5)c4c32)CC1 (stereo not drawn) [Example 74, N-(4-(7-(1-(2-Hydroxy-2-methylpropyl)-1H-pyrazol-4-yl)-3-methyl-8-(1-methyl-1H-indazol-5-yl)-2-oxo-3,6-dihydroimidazo[4,5-d]pyrrolo[2,3-b]pyridin-1(2H)-yl)cyclohexyl) acetamide]
IC50 [1]: 500 to 1000 nM | IC50 [2]: ≤ 10 nM | IC50 [3]: ≤ 10 nM

CC(C)n1c(=O)n(C)c2cnc3[nH]c(-c4cnn(CC(C)(C)O)c4)c(-c4cc5cnccc5s4)c3c21 [Example 75, 7-(1-(2-Hydroxy-2-methylpropyl)-1H-pyrazol-4-yl)-1-isopropyl-3-methyl-8-(thieno[3,2-c]pyridin-2-yl)-3,6-dihydroimidazo[4,5-d]pyrrolo[2,3-b]pyridin-2(1H)-one]
IC50 [1]: 500 to 1000 nM | IC50 [2]: ≤ 10 nM | IC50 [3]: ≤ 10 nM

CC(C)n1c(=O)n(C)c2cnc3[nH]c(-c4cnn(CC(C)(C)O)c4)c(-c4cnc(N5CCOCC5)s4)c3c21 [Example 76, 7-(1-(2-Hydroxy-2-methylpropyl)-1H-pyrazol-4-yl)-1-isopropyl-3-methyl-8-(2-morpholinothiazol-5-yl)-3,6-dihydroimidazo[4,5-d]pyrrolo[2,3-b]pyridin-2(1H)-one]
IC50 [1]: > 1000 nM | IC50 [2]: 10 to 100 nM | IC50 [3]: 10 to 100 nM

CC(C)n1c(=O)n(C)c2cnc3[nH]c(-c4cnn(CC(C)(C)O)c4)c(-c4ccc5cnccc5c4)c3c21 [Example 77, 7-(1-(2-Hydroxy-2-methylpropyl)-1H-pyrazol-4-yl)-1-isopropyl-8-(isoquinolin-6-yl)-3-methyl-3,6-dihydroimidazo[4,5-d]pyrrolo[2,3-b]pyridin-2(1H)-one]
IC50 [1]: > 1000 nM | IC50 [2]: 10 to 100 nM | IC50 [3]: 10 to 100 nM

CC(C)n1c(=O)n(C)c2cnc3[nH]c(-c4cnn(CC(C)(C)O)c4)c(-c4ccc5ncsc5c4)c3c21 [Example 78, 8-(Benzo[d]thiazol-6-yl)-7-(1-(2-hydroxy-2-methylpropyl)-1H-pyrazol-4-yl)-1-isopropyl-3-methyl-3,6-dihydroimidazo[4,5-d]pyrrolo[2,3-b]pyridin-2(1H)-one]
IC50 [1]: > 1000 nM | IC50 [2]: 10 to 100 nM | IC50 [3]: 10 to 100 nM

CC(C)n1c(=O)n(C)c2cnc3[nH]c(-c4cnn(CC(C)(C)O)c4)c(-c4ccc5c(c4)CCCO5)c3c21 [Example 79, 8-(Chroman-6-yl)-7-(1-(2-hydroxy-2-methylpropyl)-1H-pyrazol-4-yl)-1-isopropyl-3-methyl-3,6-dihydroimidazo[4,5-d]pyrrolo[2,3-b]pyridin-2(1H)-one]
IC50 [1]: 100 to 500 nM | IC50 [2]: 10 to 100 nM | IC50 [3]: ≤ 10 nM
